“Also recorded” adds a separate entry of the source. Where no end group is shown, it is not given here.

For data set [1], the system named is MC38, LLC, CT26 and RENCA tumour lines. The data set is described as follows: NK cell cytotoxicity, 51Cr release assay. In kind it is cell-based, mouse. To be noted: effector cells with/without p17 for 6 days; 4.5 h 51Cr release. Here is the method: They were performed from spleen cells from RAG^−/− mice, without T and B lymphocytes. In some cases, the total splenocytes was cultured on 6-well plates at 4×10^6 cells per ml of RPMI medium enriched with 10% SBF, L-glutamine, antibiotics, non-essential amino acids, β-mercaptoethanol and human recombinant interleukin-2 (Chiron) at 600 IU/ml. In half the wells, peptide p17 was added at a concentration of 150 μg/ml. After 48 hours, the medium was removed and the wells were washed with RPMI medium to discard the non-adherent cells. Next, fresh medium was added with/without peptide. On day +5, the medium was again changed, this time replacing all the cells and peptide p17 in the corresponding cultures. The cells counts with trypan blue were performed on days +5 and +6 of this culture. In other cases, NK cells from mouse splenocytes were purified by an immunomagnetic selection using the MiniMACS system, anti-DX5 beads and MS columns (Miltenyi Biotech) according to the manufacturer's instructions. […]
The cytotoxicity of NK cells was verified by standard 4.5 h ^51Cr release assays. […] Finally, the release of ^51Cr due to lysis by NK cells was measured after 4.5 h in a TopCount Scintillation counter (Perkin Elmer). The cytotoxicity was measured as a percentage of Cr released with respect to the total acquired by the cells. […]

Another data set deals with CT26 cells. Description: Tumour growth of subcutaneous CT26 in AH1-immunized mice treated with peptides. In kind it is in vivo, balb-c mice. The following applies: 50 μg/mouse/48 h i.p. between days 6 and 10, s.c. CT26 on day 0, AH1 immunization 10 days before. Here is the method:
GROUPS: 4 groups of 7 female balb-c mice, of 6 weeks old/group.
AH1+FIA s.c.+p144 (50 μg i.p./dose/mouse) AH1+FIA s.c.+p17(1-11) (50 μg i.p./dose/mouse) DESIGN: AH1+FIA: […]; Peptides: from day −6 on alternate days until day 10: Tumour model volume: Each 3 days from day 10 to day 41. Challenge on day 0 with CT26 (500000 cells/mouse s.c. in the flank).
REDUCTION IN THE MEAN TUMOUR VOLUME BY GROUPS TREATED WITH PEPTIDES: The effect of peptides p144 and p17(1-11)Am was studied in a tumour progression model. In this model, mice were immunized with 50 μg of AH1 10 days before the administration of 5×10^5 CT26 cells. In order to verify the effect of blocking the TGF-β1 on the protection against CT tumour cells, another two groups of mice were treated on alternate days by intraperitoneal route between days 6 and 10 (50 μg/mouse/48 h) with peptides p144 and p17(1-11)Am. […] This protection reached 100% of the animals in the case of p144 (FIG. 16).

Data set [2] concerns regulatory T lymphocytes (CD25+). The data set is described as follows: Inhibition of suppressant action of regulatory T lymphocytes (CD25+) on splenocyte proliferation. Type of data set: cell-based, Balb-c mice. The following applies: for dose dependence of inhibition of regulatory T lymphocyte action: 50 μM and double dilutions. Here is the method: 1. OBTAINMENT OF TOTAL SPLENOCYTES: To obtain splenocytes from 6-week old, female Balb-c mice, 4 animals were sacrificed, and after extracting the spleen, they were transferred to a clean medium for their dispersion with crystals, the homogenate was filtered (70-micron filter) and transferred to 50-ml tubes, for their subsequent washing and centrifugation. The cells obtained were incubated for 1 minute in lysis buffer, for the elimination of erythrocytes and they were subsequently washed with clean culture medium. Finally, the cells obtained were resuspended in 1 ml of AUTOMACS medium and they were counted. 2. PURIFICATION OF CD25+ LYMPHOCYTES: the purification of CD25+ lymphocytes was performed by the use of magnetic columns labelling with CD25PE and after incubation, anti-PE magnetic microspheres (Phycoerythrin) were added. After incubation, washing and filtration (30-micron filter) the samples were passed through a magnetic column, obtaining the eluate containing the CD25− population by gravity. Once the column is extracted from the magnetic field it is washed under pressure, obtaining the CD25+ cells. 3. SUPPRESSANT ACTIVITY ASSAY: To verify the regulating nature of the CD25+ population, a total of 100,000 splenocytes was seeded per well on a U-bottomed 96-well plate, in a volume of 200 μl per well and anti-CD3 antibody ([…]) alone or opposing CD25+ or CD25−, placing 25,000 cells per well (CD25+) or 50,000 cells per well (CD25−), performing double dilutions of the concentration of these cells. 4. ASSAY FOR THE INHIBITION OF SUPPRESSANT ACTION BY PEPTIDES: On the U-bottomed 96-well plate, with 200 μl vol/well, 100,000 splenocytes were seeded per well and anti-CD3 antibody (0.5 μl/well) plus 25,000 CD25+ lymphocytes per well. Peptides were added to these mixtures (3 columns/peptide, 50 MicroM in the 1st row and double dilution in the following three rows). 3 peptides were assayed: P17(1-11) SEQ ID NO: 3, P17(1-11)am SEQ ID NO: 4 and AcP17(1-11)am SEQ ID NO: 5. Both this assay and that of the suppressant activity were incubated at 37° C. for 48 h, tritium labelled thymidine was added at 0.5 μCi/well and it is harvested after 8 h, subsequently counting the CPM emitted by the cells from each well. 5. VERIFICATION OF THE EFFECTIVE SEPARATION OF THE Treg: Labelling with fluorescent anti-CD4 and anti-CD25 antibodies and analysis by flow cytometry (89% of the population magnetically separated is DC4+CD25+).

Take KRIWFIPRSSWYERA [p17]: the “cytotoxic activity of NK cells against tumour lines” value in data set [1] is “improves the cytotoxic activity; also recorded: increases the cytotoxicity”.

In the case of “p17(1-11)am: amino acids 1 to 11 of peptide p17, position 11 (tryptophan) amidated, SEQ ID NO: 4 (KRIWFIPRSSW-NH2)”, the tumour growth result was “delay tumour growth” in the data set with CT26 cells and “protection against tumour growth” in the data set with CT26 cells (listed as p17(1-11)Am). Also, in data set [2], the “dose dependence of inhibition of regulatory T lymphocyte action” value is given as “dose-dependent”. For the same substance, the “inhibition of the suppressant effect of regulatory T lymphocytes” value (from here on “inhibition … of regulatory T lymphocytes”) is 128% in data set [2] (peptide 50 μM) and “totally inhibiting” in data set [2] (peptide 50 μM, listed as P17(1-1)am).

Turning to “p17(1-11): fragment of peptide p17, amino acids 1 to 11, SEQ ID NO: 3 (KRIWFIPRSSW)”, the “inhibition … of regulatory T lymphocytes” value in data set [2] (peptide 50 μM) worked out at 20%.

For “Acp17(1-11)am: p17(1-11)am which further has position 1 (lysine) acetylated, SEQ ID NO: 5 (Ac-KRIWFIPRSSW-NH2)”, in data set [2], the “dose dependence of inhibition of regulatory T lymphocyte action” value was “dose-dependent”. Further, the “inhibition … of regulatory T lymphocytes” value in data set [2] (peptide 25 μM) is reported as 148%; in data set [2] (peptide 50 μM), “totally inhibiting”.

The values are drawn from patent US20090263410A1, “USE OF TGF-B1 INHIBITOR PEPTIDES IN THE PREPARATION OF AN IMMUNE RESPONSE MODULATING AGENT” (Proyecto De Biomedicina Cima, S.L., priority 2005, published 2009).
